According to patent US20240279684A1, “CYTOSOLIC DELIVERY OF GENOME EDITING TOOLS” (SAPREME TECHNOLOGIES B.V., priority 2021, published 2024):
“Also recorded” adds a separate entry of the source.

Experiments:
Neuro-2A-cells = assay: Puromycin selection after knock-in of the GFP-Puromycin-LDS; type: cell-based, murine
Excerpt: FIG. 12A, B. Puromycin selection after Knock-In of the GFP-Puromycin-LDS. After the knock-out of solute carrier Slc26a4 and integration of GFP-Puromycin-Donor sequence, the cells were cultivated for seven passages until Puromycin selection was started. Different concentrations of Puromycin were applied and the cell viability was observed (A, B). […] Plate wells in rows A-C are numbered 1-4 from left to right. Wells C3-4 were empty.
Subsequent to the co-transfection of Cas9-gRNA-Plasmid and LDS in the presence of GE1741, a Puromycin-mediated selection enabled the isolation of transfected cells and facilitates the identification of donor sequence integration into the genome. For this purpose, different Puromycin concentrations were applied to the transfected cells, in the presence of GE1741. The optimal puromycin concentration should optimally kill non-transfected/non-resistant cells, while sparing cells, which received the resistance through the donor sequence.

Neuro-2A cells = assay: Transfection efficiency of PD-nanoplexes with/without saponin, flow cytometry (GFP); type: cell-based, murine
Experimental: (§1) After biophysical characterisation had established that nanoplexes of the large plasmid DNA and the poly-lysine peptide were formed, cell experiments were performed: transfections. […] Without wishing to be bound by any theory, the latter effect is most likely due to insufficient complexing of DNA. […] JIMT-1-cells (DSMZ no.: ACC 589) and Neuro-2A- cells (DSMZ no.: ACC 148) were transfected with nanoplexes containing relatively large Cas9-GFP-plasmid, with and without GE1741-Co-application or SO1861-Co-application at a non-toxic concentration, when the cell which is to be transfected is considered. The transfection efficiency of all transfection conditions was measured after 48 h incubation time using flow cytometry by comparison to the negative control in terms of fluorescence intensity (for example, cells contacted with the nanoparticles in the absence of saponin). The efficiency of GE1741-based transfections and SO1861-based transfections was also compared with efficiency of Lipofectamine3000™-based transfection of the nanoparticles. Transfections were performed according to protocols commonly known and applied in the field (Clochard et al., 2020; Sama et al., 2018a; Sama et al., 2017; Sama et al., 2018b). […] Transfection efficiency of GE1741-mediated PD-transfection and SO1861-mediated PD-transfections on Neuro-2A cells and JIMT-1 cells was assessed. Cells were transfected with Cas9-GFP-DNA containing PD-nanoplexes, with and without GE1741 or SO1861 (final concentration of the saponin was 2 μg/ml). In Neuro-2A cells and JIMT-1 cells transection efficiency varied between 30% and 40%. Lipofectamin3000 served as reference. n≥3; a significant difference compared to the GE1741-free transfections or SO1861-free transfections was apparent, U-test, p≤0.05.
FIG. 4A, B. Transfection efficiency of saponin-mediated PD (Cas9-GFP)-transfections on Neuro-2A cells (FIG. 4A) and on JIMT-1-cells (FIG. 4B). Neuro-2A cells (A) and JIMT-1 cells (B) were transfected with GFP-DNA (i.e. a plasmid comprising the GFP DNA) bearing PD-nanoplexes or with Cas9-GFP-DNA bearing PD-nanoplexes, with and without the highest non-toxic saponin Co-administration (GE1741 Co-administration at 2 μg/ml or SO1861 Co-administration at 2 μg/ml). While GFP-DNA-transfections reached high efficiencies of around 70%, approximately 40% of all cells expressed GFP after Cas9-GFP-transfection. […] N≥3; *: significant difference compared to the saponin-free transfection (only nuclease), U-test.
JIMT-1-cells (human breast carcinoma) and Neuro-2A-cells (murine neuroblastoma) were transfected with nanoplexes, containing Cas9-GFP-plasmid, with and without saponin GE1741-co-application or saponin SO1861-co-application (that is to say, the saponin is added to the cell culture together with the addition of the nanoparticles comprising the nucleic acid that is to be transfected in the presence of the saponin), in a non-toxic concentration when the saponins are considered. The mass ratios for the peptide and the nucleic acid (plasmid DNA) in the nanoparticles were selected considering the dynamic light scattering (DLS) measurements and considering the aforementioned earlier assessed toxicity and earlier performed efficiency studies. The transfection efficiency of all transfection conditions was measured after 48 h incubation time via flow cytometry by comparison to the negative control in terms of fluorescence intensity (FIG. 4). […]

JIMT-1 cells = assay: as above; type: cell-based, human; conditions: GFP-DNA PD-nanoplexes, saponin 2 μg/ml
Experimental: as §1, with “Cells were transfected with Cas9-GFP-DNA containing PD-nanoplexes, with and without GE1741 or SO1861 (final concentration of the saponin was 2 μg/ml). In Neuro-2A cells and JIMT-1 cells transection efficiency varied between 30% and 40%. Lipofectamin3000 served as reference. n≥3; a significant difference compared to the GE1741-free transfections or SO1861-free transfections was apparent, U-test, p≤0.05.” left out

[1] = tested on: cells with which the nanoplexes are contacted; assay: Toxicity of saponin towards cells during transfection; type: cell-based
Excerpt: It is part of the invention that the method or the use of the invention is characterized in that the nanoparticle comprises the nanoparticle-forming compound, such as a peptide, such as poly-lysine, and the nucleic acid in a mass ratio in a range of 3:1 to 15:1, preferably in a range of 3:1 to 9:1. Typically, the nanoparticle-forming compound is a poly-lysine peptide such as K16 peptide. Preferred is the method wherein the nucleic acid is a plasmid DNA, at least encoding for a Cas, preferably Cas9 (SEQ ID NO: 1), and optionally also encoding for the gRNA, and wherein the nanoparticles comprise in addition to the plasmid DNA at least one poly-lysine peptide, preferably poly-lysine K16 peptide (poly-lysine peptide consisting of sixteen lysine residues). Alternatively, the poly-lysine peptide is a peptide consisting of 8-25 lysine residues, preferably 10-20, more preferably 12-18. High in vitro transfection efficiency is obtained with the method of the invention when nanoparticles encompassing plasmid DNA, K16 peptide are prepared and applied, and are contacted with cells in the presence of a saponin selected from GE1741 and SO1861, and preferably the saponin is GE1741. Typically, the saponin concentration during transfection of the plasmid DNA into selected target cells in vitro is 1 μg/mL-5 μg/mL, preferably 2-4 μg/mL. […] Cells are typically contacted with a composition comprising the nanoplexes and a separate composition comprising the saponin, preferably GE1741. Thus, typically, the nanoparticles comprise the poly-lysine peptide and the nucleic acid, for example at least a plasmid DNA encoding for a Cas, preferably Cas9 (SEQ ID NO: 1), or a Cas with at least 90% sequence identity with this Cas9, preferably 90-99.5% sequence identity, such as 92%, 93%, 94%, 95% or 95-99%.

| SMILES | effect on cells (selection) (Neuro-2A-cells; 0.5 μg/mL) | effect on cells (selection) (Neuro-2A-cells; 1 μg/mL) | effect on cells (selection) (Neuro-2A-cells; 2 μg/mL) | effect on cells (selection) (Neuro-2A-cells; 2-3 μg/mL) | transfection efficiency (cells expressing GFP) (Neuro-2A cells; GFP-DNA PD-nanoplexes, saponin 2 μg/ml, Neuro-2A) | transfection efficiency compared with Lipofectamine3000 (Neuro-2A cells; nanoplexes of relatively large DNA plasmid and poly-lysine, saponin present) | transfection efficiency (cells expressing GFP) (JIMT-1 cells) | highest non-toxic saponin Co-administration ([1]; Neuro-2A and JIMT-1 transfections) | toxic activity towards the cells ([1]; saponin concentration of 1 μg/mL-5 μg/mL, applied together with the nanoplexes) |
| --- | --- | --- | --- | --- | --- | --- | --- | --- | --- |
| COc1ccc(C[C@H](N)C(=O)N[C@H]2[C@@H](O)[C@H](n3cnc4c(N(C)C)ncnc43)O[C@@H]2CO)cc1 [Puromycin] | no significant effect | incomplete selection; also recorded: decrease of confluence | decrease of confluence | diminished nearly all cells | – | – | – | – | – |
| CC(=O)OC1C(C)OC(OC2C(C)OC(OC(=O)[C@]34CCC(C)(C)CC3C3=CCC5[C@@]6(C)CC[C@H](OC7OC(C(=O)O)C(O)C(OC8OCC(O)C(O)C8O)C7OC7OC(CO)C(O)C(O)C7O)[C@@](C)(C=O)C6CC[C@@]5(C)C3(C)CC4O)C(OC3OC(C)C(OC4OCC(O)C(OC5OC(CO)C(O)C(O)C5O)C4O)C(O)C3O)C2O)C(O)C1OC1OCC(O)C(O)C1O (stereo partly drawn) [SO1861] | – | – | – | – | around 70% | higher than obtainable with current gold standard Lipofectamine3000™ | around 70% | 2 µg/mL | not exhibiting toxic activity |
